Results reported in paper PMC6980656 (Cell chemical biology, 2019).
One block for each compound: values may come before it.

Legend:
Wee1 [1] = molecular target: T1, Wee1 (Homo sapiens, UniProt P30291); assay: LanthaScreen FRET-based assay; assay type: binding; details: for engagement of recombinant Wee1: LanthaScreen, Table S1
Wee1 [2] = molecular target: T1, Wee1; assay: Immunoblot of Wee1 degradation in parental MOLT4 cells; assay type: cell-based
[3] = tested on: 300 suspension and hematopoietic cancer cell lines; assay: PRISM pooled cytotoxicity assay; assay type: cell-based
[4] = tested on: pCDK1 Y15, PARP cleavage, γH2Ax; assay: Immunoblot of downstream markers; assay type: cell-based; details: MOLT4 cells; for downstream changes (pCDK1 Y15, PARP cleavage, γH2Ax): 100 nM
OVCAR8 cells = assay: Synergy co-treatment, CellTiter-Glo in OVCAR8 cells; assay type: cell-based; details: for synergy with Olaparib: 72 hr co-treatment
MOLT4 cells [5] = assay: Cell cycle analysis by propidium iodide staining, parental MOLT4; assay type: cell-based; details: PI staining; for effect on cell cycle (G2/M proportion): 100 nM
MOLT4 cells [6] = assay: CellTiter-Glo cell viability, parental MOLT4; assay type: cell-based; details: for IC50: Homo sapiens, MOLT-4, 72 h, read-out: IC50, antiproliferative activity
[7] = tested on: phosphorylation of CDK1 at Tyr15 (pCDK1 Y15); assay: Immunoblot of pCDK1 Y15 in parental MOLT4 cells; assay type: cell-based
PLK1 [8] = molecular target: T2, PLK1 (Homo sapiens, UniProt P53350); assay: KINOMEscan profiling; assay type: binding; details: 1 μM
Wee1 [9] = molecular target: T1, Wee1; assay: KINOMEscan profiling; assay type: binding; details: 1 μM
[10] = tested on: MCF10A non-transformed mammary epithelial cell line; assay: Image-based cell cycle assay in MCF10A
MOLT4 CRBN−/− cells = assay: CellTiter-Glo cell viability, CRBN−/− MOLT4; assay type: cell-based; details: 72 hrs
[11] = tested on: BT549, HCC1806, COV362, Kuramochi, OVCAR8 cell lines; assay: Image-based cell cycle assay in TNBC and ovarian cancer cell lines
Wee1 [12] = molecular target: T1, Wee1; assay: Wee1 degradation in OVCAR8 cells; assay type: cell-based
Aiolos (IKZF3) = Aiolos (IKZF3) (Homo sapiens, UniProt Q96SW2+Q9UKT9); assay: IKZF3 degradation, proteomics/immunoblotting; assay type: cell-based
[13] = tested on: phosphorylation of CDK1 at Tyr15 (pCDK1 Y15); assay: Immunoblot of pCDK1 Y15 in CRBN−/− MOLT4 cells; assay type: cell-based; details: 5 hrs
ZFP91 = ZFP91 (Homo sapiens, UniProt Q96JP5+Q96SW2); assay: ZFP91 abundance by proteomics in MOLT4 cells; assay type: cell-based; details: 100 nM, 2 hrs
PLK1 [14] = molecular target: T2, PLK1; assay: PLK1 abundance by proteomics and immunoblot in MOLT4 cells; assay type: cell-based; details: proteomics (100 nM, 2 hrs) or immunoblot
CRBN−/− MOLT4 cells = assay: Cell cycle analysis by propidium iodide staining, CRBN−/− MOLT4; assay type: cell-based; details: 100 nM, 24 hrs
Ikaros (IKZF1) = Ikaros (IKZF1) (Homo sapiens, UniProt Q13422+Q96SW2); assay: IKZF1 degradation, proteomics/immunoblotting; assay type: cell-based
Wee1 [15] = molecular target: T1, Wee1; assay: Immunoblot of Wee1 degradation in CRBN−/− MOLT4 cells; assay type: cell-based; details: 5 hrs
[16] = tested on: OCE1 non-malignant ovarian line; assay: Viability in non-malignant ovarian line; assay type: cell-based
[17] = tested on: OVCAR8, COV283, and Kuramochi ovarian cancer cell lines; assay: Viability in ovarian cancer cell line panel; assay type: cell-based
[18] = 24 hr treatment, immunoblotting
[19] = MOLT4 cells, 2 hrs pretreatment then 5 hrs co-treatment

T2 sequence (P53350 whole entry): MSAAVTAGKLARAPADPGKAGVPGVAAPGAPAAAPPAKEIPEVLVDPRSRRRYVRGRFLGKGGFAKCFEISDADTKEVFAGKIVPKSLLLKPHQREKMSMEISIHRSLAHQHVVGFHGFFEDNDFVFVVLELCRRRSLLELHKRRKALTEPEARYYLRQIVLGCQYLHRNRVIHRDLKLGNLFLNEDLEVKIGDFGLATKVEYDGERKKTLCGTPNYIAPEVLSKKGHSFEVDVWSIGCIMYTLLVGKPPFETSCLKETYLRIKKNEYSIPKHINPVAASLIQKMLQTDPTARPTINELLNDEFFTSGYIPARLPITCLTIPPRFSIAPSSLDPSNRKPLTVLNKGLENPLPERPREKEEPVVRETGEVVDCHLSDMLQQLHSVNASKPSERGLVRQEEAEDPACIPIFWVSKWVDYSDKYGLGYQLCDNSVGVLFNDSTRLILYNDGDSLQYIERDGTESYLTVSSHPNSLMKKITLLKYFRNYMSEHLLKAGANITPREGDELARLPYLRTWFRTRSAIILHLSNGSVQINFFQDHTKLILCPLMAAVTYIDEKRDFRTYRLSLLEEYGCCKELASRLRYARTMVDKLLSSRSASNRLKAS
T1 sequence (P30291 whole entry): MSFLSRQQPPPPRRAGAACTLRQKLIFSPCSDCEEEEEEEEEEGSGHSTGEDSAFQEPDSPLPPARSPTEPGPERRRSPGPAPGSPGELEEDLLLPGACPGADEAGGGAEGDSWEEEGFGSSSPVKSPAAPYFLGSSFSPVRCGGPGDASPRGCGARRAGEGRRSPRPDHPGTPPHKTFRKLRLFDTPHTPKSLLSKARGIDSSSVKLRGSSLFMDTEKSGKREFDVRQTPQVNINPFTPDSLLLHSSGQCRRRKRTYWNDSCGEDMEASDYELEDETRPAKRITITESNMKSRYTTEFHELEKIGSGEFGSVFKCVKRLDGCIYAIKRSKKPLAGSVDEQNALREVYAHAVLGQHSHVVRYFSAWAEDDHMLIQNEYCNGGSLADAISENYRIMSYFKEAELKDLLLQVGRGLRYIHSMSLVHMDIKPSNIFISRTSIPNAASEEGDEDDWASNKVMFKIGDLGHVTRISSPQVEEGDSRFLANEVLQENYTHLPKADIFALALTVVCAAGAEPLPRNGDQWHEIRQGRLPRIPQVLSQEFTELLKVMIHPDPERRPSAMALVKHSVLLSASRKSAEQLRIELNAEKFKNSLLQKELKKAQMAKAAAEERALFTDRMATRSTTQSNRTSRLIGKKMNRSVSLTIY
Sequence of Ikaros (IKZF1) (Q13422 whole entry): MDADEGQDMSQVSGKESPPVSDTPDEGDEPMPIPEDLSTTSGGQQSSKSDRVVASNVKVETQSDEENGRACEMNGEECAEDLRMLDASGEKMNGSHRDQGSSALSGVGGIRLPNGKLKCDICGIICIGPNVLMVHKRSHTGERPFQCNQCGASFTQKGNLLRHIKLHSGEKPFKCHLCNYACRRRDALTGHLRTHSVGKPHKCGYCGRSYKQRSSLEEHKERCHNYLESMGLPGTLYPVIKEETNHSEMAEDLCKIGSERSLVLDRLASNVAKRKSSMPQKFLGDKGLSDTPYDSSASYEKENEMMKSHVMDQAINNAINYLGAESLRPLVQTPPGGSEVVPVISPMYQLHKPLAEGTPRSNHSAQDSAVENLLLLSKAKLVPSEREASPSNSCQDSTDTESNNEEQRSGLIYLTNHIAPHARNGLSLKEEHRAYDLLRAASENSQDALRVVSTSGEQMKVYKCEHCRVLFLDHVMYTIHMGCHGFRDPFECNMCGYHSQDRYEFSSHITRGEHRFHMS
Sequence of Ikaros (IKZF1) (Q96SW2 whole entry): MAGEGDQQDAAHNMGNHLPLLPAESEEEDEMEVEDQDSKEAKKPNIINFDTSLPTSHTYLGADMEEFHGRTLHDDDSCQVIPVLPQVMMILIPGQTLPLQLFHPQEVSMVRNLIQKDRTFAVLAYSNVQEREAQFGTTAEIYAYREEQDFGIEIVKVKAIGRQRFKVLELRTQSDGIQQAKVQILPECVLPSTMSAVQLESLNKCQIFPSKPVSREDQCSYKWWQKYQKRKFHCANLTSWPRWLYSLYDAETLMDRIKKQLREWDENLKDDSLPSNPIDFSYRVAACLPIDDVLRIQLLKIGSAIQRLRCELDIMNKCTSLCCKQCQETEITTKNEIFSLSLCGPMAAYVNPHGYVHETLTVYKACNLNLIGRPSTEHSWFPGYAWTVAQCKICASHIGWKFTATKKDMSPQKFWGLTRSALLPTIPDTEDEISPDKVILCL
Sequence of Ikaros (IKZF1) (Q16531 whole entry partner): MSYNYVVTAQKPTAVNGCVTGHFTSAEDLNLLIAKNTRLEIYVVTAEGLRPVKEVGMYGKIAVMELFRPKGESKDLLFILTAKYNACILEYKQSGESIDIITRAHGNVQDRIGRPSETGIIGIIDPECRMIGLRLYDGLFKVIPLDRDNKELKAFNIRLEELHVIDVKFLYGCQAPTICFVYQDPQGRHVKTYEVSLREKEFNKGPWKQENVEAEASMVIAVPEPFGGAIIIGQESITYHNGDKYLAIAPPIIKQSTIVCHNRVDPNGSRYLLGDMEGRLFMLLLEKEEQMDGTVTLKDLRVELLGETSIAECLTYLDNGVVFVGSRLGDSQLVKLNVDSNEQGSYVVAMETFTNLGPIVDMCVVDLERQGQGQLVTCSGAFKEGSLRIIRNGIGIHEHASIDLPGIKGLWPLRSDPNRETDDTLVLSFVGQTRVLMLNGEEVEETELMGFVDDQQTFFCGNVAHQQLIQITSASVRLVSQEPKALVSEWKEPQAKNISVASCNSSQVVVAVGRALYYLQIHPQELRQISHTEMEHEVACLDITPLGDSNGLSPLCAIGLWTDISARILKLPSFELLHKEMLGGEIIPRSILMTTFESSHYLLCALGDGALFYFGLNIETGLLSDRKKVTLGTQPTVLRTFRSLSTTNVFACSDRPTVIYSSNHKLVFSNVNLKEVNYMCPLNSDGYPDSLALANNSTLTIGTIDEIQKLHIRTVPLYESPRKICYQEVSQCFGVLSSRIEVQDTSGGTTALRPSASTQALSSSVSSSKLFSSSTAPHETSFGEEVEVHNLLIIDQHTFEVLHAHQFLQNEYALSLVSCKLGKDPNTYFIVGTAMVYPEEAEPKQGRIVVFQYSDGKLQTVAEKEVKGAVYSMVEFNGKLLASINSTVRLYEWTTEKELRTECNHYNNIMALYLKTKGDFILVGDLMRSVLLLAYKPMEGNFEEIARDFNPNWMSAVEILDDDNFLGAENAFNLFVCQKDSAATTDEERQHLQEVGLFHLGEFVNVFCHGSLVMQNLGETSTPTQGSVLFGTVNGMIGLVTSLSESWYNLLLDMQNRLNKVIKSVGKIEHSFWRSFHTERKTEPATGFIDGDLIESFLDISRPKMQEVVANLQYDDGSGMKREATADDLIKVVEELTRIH
Sequence of Aiolos (IKZF3) (Q9UKT9 whole entry): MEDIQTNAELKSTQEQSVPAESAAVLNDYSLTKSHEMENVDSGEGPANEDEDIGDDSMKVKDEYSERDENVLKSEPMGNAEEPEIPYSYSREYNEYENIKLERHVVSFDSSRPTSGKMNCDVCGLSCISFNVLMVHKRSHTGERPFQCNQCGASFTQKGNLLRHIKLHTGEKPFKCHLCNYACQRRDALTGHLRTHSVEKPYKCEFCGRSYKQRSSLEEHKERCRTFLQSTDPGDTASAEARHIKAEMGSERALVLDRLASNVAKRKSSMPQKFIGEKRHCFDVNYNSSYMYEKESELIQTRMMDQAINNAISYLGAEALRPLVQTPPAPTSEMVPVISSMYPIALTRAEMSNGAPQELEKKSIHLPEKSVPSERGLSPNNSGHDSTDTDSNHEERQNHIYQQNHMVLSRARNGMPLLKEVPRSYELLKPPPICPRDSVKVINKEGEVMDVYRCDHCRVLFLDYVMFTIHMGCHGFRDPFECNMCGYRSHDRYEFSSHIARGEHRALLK
Sequence of Aiolos (IKZF3) (Q96SW2 whole entry): as the sequence (Q96SW2 whole entry) above
Sequence of Aiolos (IKZF3) (Q16531 whole entry partner): as the sequence (Q16531 whole entry partner) above
Sequence of ZFP91 (Q96JP5 whole entry): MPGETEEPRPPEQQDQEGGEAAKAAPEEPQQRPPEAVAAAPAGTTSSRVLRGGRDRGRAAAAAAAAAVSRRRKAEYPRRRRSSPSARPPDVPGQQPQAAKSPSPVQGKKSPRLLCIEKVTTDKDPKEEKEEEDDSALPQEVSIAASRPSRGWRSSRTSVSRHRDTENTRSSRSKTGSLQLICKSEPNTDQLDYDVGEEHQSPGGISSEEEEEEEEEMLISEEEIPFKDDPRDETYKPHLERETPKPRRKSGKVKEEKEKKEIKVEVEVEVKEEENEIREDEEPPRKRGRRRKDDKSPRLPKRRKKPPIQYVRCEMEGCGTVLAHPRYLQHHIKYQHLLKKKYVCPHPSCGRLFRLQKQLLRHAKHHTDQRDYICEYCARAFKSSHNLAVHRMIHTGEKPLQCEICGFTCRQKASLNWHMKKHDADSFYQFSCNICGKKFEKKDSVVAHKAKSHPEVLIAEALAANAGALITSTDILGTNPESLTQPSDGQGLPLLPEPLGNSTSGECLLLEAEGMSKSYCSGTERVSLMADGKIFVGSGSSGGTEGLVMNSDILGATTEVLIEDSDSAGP
Sequence of ZFP91 (Q96SW2 whole entry): as the sequence (Q96SW2 whole entry) above
Sequence of ZFP91 (Q16531 whole entry partner): as the sequence (Q16531 whole entry partner) above

Compound: C=CCn1c(=O)c2cnc(Nc3ccc(N4CCN(CCCNc5cccc6c5C(=O)N(C5CCC(=O)N(C)C5=O)C6=O)CC4)cc3)nc2n1-c1cccc(C(C)(C)O)n1 (stereo not shown) [ZNL-02-178, 4-((3-(4-(4-((2-allyl-1-(6-(2-hydroxypropan-2-yl)pyridin-2-yl)-3-oxo-2,3-dihydro-1H-pyrazolo[3,4-d]pyrimidin-6-yl)amino)phenyl)piperazin-1-yl)propyl)amino)-2-(1-methyl-2,6-dioxopiperidin-3-yl)is oindoline-1,3-dione]
potency in PRISM relative to ZNL-02-096 [3]: uniformly less potent
downstream changes (pCDK1 Y15, PARP cleavage, γH2Ax) ([4]; 24 hr): did not produce these downstream changes
synergy with Olaparib (OVCAR8 cells): less synergistic activity with Olaparib than ZNL-02-096 at low doses
Wee1 degradation (immunoblot, in words) (Wee1 [2]; MOLT4 cells, 5 hr treatment): inhibits but does not degrade Wee1
effect on Wee1 protein levels (Wee1 [2]; MOLT4 cells, out to 48 hrs after treatment): no effect on Wee1 protein levels
effect on cell cycle (G2/M proportion) (MOLT4 cells [5]): did not appreciably affect the cell cycle

Compound: Nc1cccc2c1C(=O)N(C1CCC(=O)NC1=O)C2=O (stereo not shown) [pomalidomide, reference compound]
effect on pCDK1 Y15, apoptosis, DNA damage ([4]; 24 hr, 1 μM): did not affect phosphorylation of CDK1 Y15, apoptosis, or levels of DNA damage
synergy with Olaparib (OVCAR8 cells): not synergistic
synergy with AZD1775 (OVCAR8 cells; co-treatment): not synergistic
Wee1 degradation (immunoblot, in words) (Wee1 [2]; MOLT4 cells, 5 hr treatment): insufficient to induce Wee1 degradation
cytotoxicity (MOLT4 cells [6]; alone, Fig. S3): no detectable cytotoxicity

Compound: C=CCn1c(=O)c2cnc(Nc3ccc(N4CCN(C)CC4)cc3)nc2n1-c1cccc(C(C)(C)O)n1 [AZD1775, reference compound]
effect on pCDK1 Y15 ([7]; MOLT4 cells, 1 μM pretreatment alone, independent of ZNL-02-096 co-treatment): decreased pCDK1 Y15
concentration necessary to produce the same downstream changes ([4]; 24 hr): 1 µM
downstream changes (pCDK1 Y15, PARP cleavage, γH2Ax) ([4]; 24 hr): did not produce these downstream changes
KINOMEscan engagement of PLK1 (PLK1 [8]): strong engagement
Wee1 degradation (immunoblot, in words) (Wee1 [2]; MOLT4 cells, 5 hr treatment): insufficient to induce Wee1 degradation
effect on cell cycle (G2/M proportion) (MOLT4 cells [5]): did not appreciably affect the cell cycle
dose needed to elicit the same cell cycle changes as 100 nM ZNL-02-096 (MOLT4 cells [5]): 1 µM
KINOMEscan engagement of Wee1 (Wee1 [9]): strong engagement
IC50 (MOLT4 cells [6]): 800 nM
cell cycle changes [10]: neither ZNL-02-096 nor AZD1775 induced significant cell cycle changes

Compound: C=CCn1c(=O)c2cnc(Nc3ccc(N4CCN(CCCNc5cccc6c5C(=O)N(C5CCC(=O)NC5=O)C6=O)CC4)cc3)nc2n1-c1cccc(C(C)(C)O)n1 (stereo not shown) [ZNL-02-096, 4-((3-(4-(4-((2-Allyl-1-(6-(2-hydroxypropan-2-yl)pyridin-2-yl)-3-oxo-2,3-dihydro-1H-pyrazolo[3,4-d]pyrimidin-6-yl)amino)phenyl)piperazin-1-yl)propyl)amino)-2-(2,6-dioxopiperidin-3-yl)isoindoline-1,3-dione]
shift in IC50, MOLT4 CRBN−/− versus parental cells (MOLT4 CRBN−/− cells): approximately 6 fold
G2/M phase accumulation [11]: induced G2/M phase accumulation at lower doses than either ZNL-02-178 or AZD1775
concentration of maximal Wee1 degradation (Wee1 [12]): 100 nM
dose from which pCDK1 Y15 is reduced ([7]; parental MOLT4 cells, 5 hrs): 100 nM
IKZF3 degradation (Aiolos (IKZF3); [18]): degradation of both IKZF1 and IKZF3 was apparent
IKZF3 degradation (Aiolos (IKZF3); short time points): no degradation of either IKZF1 or IKZF3
dose from which pCDK1 Y15 is decreased [13]: 1 μM
IC50 ([3]; read-out: IC50, PRISM): < 1000 nM
fold lower dose than AZD1775 for the same downstream effects [4]: 10 fold
concentration producing reduced pCDK1 Y15, PARP cleavage and γH2Ax ([4]; 24 hr): 100 nM
ZFP91 degradation (ZFP91): low levels of ZFP91 degradation
synergy with Olaparib (OVCAR8 cells): synergized with Olaparib
PLK1 downregulation (PLK1 [14]): No downregulation of PLK1
G2/M accumulation (CRBN−/− MOLT4 cells): absent
KINOMEscan engagement of PLK1 (PLK1 [8]): strong engagement
IKZF1 degradation (Ikaros (IKZF1); [18]): degradation of both IKZF1 and IKZF3 was apparent
IKZF1 degradation (Ikaros (IKZF1); short time points): no degradation of either IKZF1 or IKZF3
engagement of recombinant Wee1 (Wee1 [1]): potently engaged recombinant Wee1
time to complete Wee1 degradation (Wee1 [2]; MOLT4 cells, 100 nM): ≤ 3 h
Wee1 degradation (Wee1 [2]; MOLT4 cells, 100 nM, within 30 min): over 50%
Wee1 degradation by ZNL-02-096 after MLN4924 pretreatment (Wee1 [2]; [19]): prevented
Wee1 degradation by ZNL-02-096 after carfilzomib pretreatment (Wee1 [2]; [19]): rescued
Wee1 degradation by ZNL-02-096 after pretreatment with excess AZD1775 (Wee1 [2]; [19]): prevented ZNL-02-096-induced Wee1 degradation
Wee1 degradation by ZNL-02-096 after pretreatment with excess pomalidomide (Wee1 [2]; [19]): only partial rescue
Wee1 degradation (immunoblot, in words) (Wee1 [2]; MOLT4 cells, 5 hr treatment): degradation was most pronounced
duration of sustained Wee1 loss (Wee1 [2]; MOLT4 cells, single 100 nM treatment): at least 48 hrs
concentration of maximal Wee1 degradation (Wee1 [2]; parental MOLT4 cells, 5 hrs): 100 nM
concentration at which hook effect is apparent (Wee1 [2]; parental MOLT4 cells, 5 hrs, top concentration): 10 µM
effect on Wee1 abundance (Wee1 [15]): did not affect Wee1 abundance
effect on cell cycle (G2/M proportion) (MOLT4 cells [5]): increased the proportion of MOLT4 cells in G2/M in a time-dependent manner
cytotoxicity [16]: little cytotoxicity
KINOMEscan engagement of Wee1 (Wee1 [9]): strong engagement
IC50 (MOLT4 cells [6]): 390 nM
cell cycle changes [10]: neither ZNL-02-096 nor AZD1775 induced significant cell cycle changes
cell death [17]: induced potent cell death

Other lines, results leading:

engagement of recombinant Wee1 (Wee1 [1]): potently engaged recombinant Wee1
Wee1 degradation (immunoblot, in words) (Wee1 [2]; MOLT4 cells, 5 hr treatment): induced Wee1 degradation
Compound: C=CCn1c(=O)c2cnc(Nc3ccc(N4CCN(CCCCCCNc5cccc6c5C(=O)N(C5CCC(=O)NC5=O)C6=O)CC4)cc3)nc2n1-c1cccc(C(C)(C)O)n1 (stereo not shown) [ZNL-02-040, 4-((6-(4-(4-((2-Allyl-1-(6-(2-hydroxypropan-2-yl)pyridin-2-yl)-3-oxo-2,3-dihydro-1H-pyrazolo[3,4-d]pyrimidin-6-yl)amino)phenyl)piperazin-1-yl)hexyl)amino)-2-(2,6-dioxopiperidin-3-yl)isoindoline-1,3-dione]

IC50 (Wee1 [1]): 1 to 10 nM
Wee1 degradation (immunoblot, in words) (Wee1 [2]; MOLT4 cells, 5 hr treatment): induced Wee1 degradation
concentration required to achieve maximal Wee1 degradation (Wee1 [2]; MOLT4 cells, 5 hr treatment): 1 µM
Compound: C=CCn1c(=O)c2cnc(Nc3ccc(N4CCN(CCCNC(=O)CCOCCOCCNc5cccc6c5C(=O)N(C5CCC(=O)NC5=O)C6=O)CC4)cc3)nc2n1-c1cccc(C(C)(C)O)n1 (stereo not shown) [ZNL-02-012, N-(3-(4-(4-((2-allyl-1-(6-(2-hydroxypropan-2-yl)pyridin-2-yl)-3-oxo-2,3-dihydro-1H-pyrazolo[3,4-d]pyrimidin-6-yl)amino)phenyl)piperazin-1-yl)propyl)-3-(2-(2-((2-(2,6-dioxopiperidin-3-yl)-1,3-dioxoisoindolin-4-yl)amino)ethoxy)ethoxy)propenamide]

IC50 (Wee1 [1]): 1 to 10 nM
Wee1 degradation (immunoblot, in words) (Wee1 [2]; MOLT4 cells, 5 hr treatment): induced Wee1 degradation
concentration sufficient to degrade Wee1 (Wee1 [2]; MOLT4 cells, 5 hr treatment): 100 nM
Compound: C=CCn1c(=O)c2cnc(Nc3ccc(N4CCN(CCOCCOCCOCCNc5cccc6c5C(=O)N(C5CCC(=O)NC5=O)C6=O)CC4)cc3)nc2n1-c1cccc(C(C)(C)O)n1 (stereo not shown) [ZNL-02-047, 4-((2-(2-(2-(2-(4-(4-((2-Allyl-1-(6-(2-hydroxypropan-2-yl)pyridin-2-yl)-3-oxo-2,3-dihydro-1H-pyrazolo[3,4-d]pyrimidin-6-yl)amino)phenyl)piperazin-1-yl)ethoxy)ethoxy)ethoxy)ethyl)amino)-2-(2,6-dioxopiperidin-3-yl)isoindoline-1,3-dione]
